Results reported in PubChem BioAssay AID1963977 (Molecular Pharmacology Branch, DTP, NCI, 2024).
“And” between values parts separate entries of the source, which are not always exact repeats. Equal entries are not always repeated.

System: 624824-186-R-J3-PDC multicell spheroids, viability
Assay: Anticancer human tumor 624824-186-R-J3-PDC patient-derived colon adenocarcinoma cell line growth inhibition [PI3K]
Details: for viability, T/C: stronger effect = lower value
Method in brief: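 Complex 3D spheroids (cancer cells + endothelial HUVEC + mesenchymal stem cells); drug pairs of targeted agent x inavolisib/alpelisib/duvelisib/copanlisib; half-log series from ~Cmax, max 10 microM if Cmax unknown; endpoint viability.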
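Further: spheroids exposed to agents for seven days before luminescence read.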
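Wherever viability, T/C is given: luminescent signal used as a stand-in for spheroid viability; percent viability relative to DMSO vehicle control wells taken as 100%.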

Q: For `CC(=O)c1c(C)c2cnc(Nc3ccc(N4CCNCC4)cn3)nc2n(C2CCCC2)c1=O` + CC(Nc1ncnc2nc[nH]c12)c1cc2cccc(Cl)c2c(=O)n1-c1ccccc1, which IC50 (curve of first compound, second compound 0.0316 µM) is on record?
A: The IC50 was greater than 100 nM.

Q: And the IC50 (curve of first compound, second compound 0.1 µM)?
A: Its IC50 is greater than 100 nM.

Q: And the IC50 (curve of first compound, second compound 0.316 µM)?
A: Its IC50 is greater than 100 nM.

Q: What about the IC50 (curve of first compound, second compound 1 µM) of the same compound?
A: Its IC50 is greater than 100 nM.

Q: And the IC50 (curve of first compound, second compound 3.16 µM)?
A: Its IC50 is greater than 100 nM.

Q: What about the IC50 (curve of first compound, second compound 10 µM) of the same compound?
A: Its IC50 is greater than 100 nM.

Q: And the viability, T/C (second compound 0.0316 µM, first compound 0.000316 µM)?
A: Its viability, T/C is 107%.

Q: And the viability, T/C (second compound 0.0316 µM, first compound 0.001 µM)?
A: The viability, T/C was 96.8%.

Q: What about the viability, T/C (second compound 0.0316 µM, first compound 0.00316 µM) of the same compound?
A: The viability, T/C was 103%.

Q: What about the viability, T/C (second compound 0.0316 µM, first compound 0.01 µM) of the same compound?
A: Its viability, T/C is 113%.

Q: And the viability, T/C (second compound 0.0316 µM, first compound 0.0316 µM)?
A: Its viability, T/C is 99.7%.

Q: What about the viability, T/C (second compound 0.0316 µM, first compound 0.1 µM) of the same compound?
A: The viability, T/C was 122%.

Q: What about the viability, T/C (second compound 0.1 µM, first compound 0.000316 µM) of the same compound?
A: The viability, T/C was 93%.

Q: What about the viability, T/C (second compound 0.1 µM, first compound 0.001 µM) of the same compound?
A: Its viability, T/C is 91.9%.

Q: And the viability, T/C (second compound 0.1 µM, first compound 0.00316 µM)?
A: The viability, T/C was 106%.

Q: What about the viability, T/C (second compound 0.1 µM, first compound 0.01 µM) of the same compound?
A: Its viability, T/C is 101%.

Q: What about the viability, T/C (second compound 0.1 µM, first compound 0.0316 µM) of the same compound?
A: The viability, T/C was 105%.

Q: And the viability, T/C (second compound 0.1 µM, first compound 0.1 µM)?
A: Its viability, T/C is 111%.

Q: And the viability, T/C (second compound 0.316 µM, first compound 0.000316 µM)?
A: The viability, T/C was 94.9%.

Q: And the viability, T/C (second compound 0.316 µM, first compound 0.001 µM)?
A: The viability, T/C was 102%.

Q: What about the viability, T/C (second compound 0.316 µM, first compound 0.00316 µM) of the same compound?
A: The viability, T/C was 99.9%.

Q: And the viability, T/C (second compound 0.316 µM, first compound 0.01 µM)?
A: The viability, T/C was 103%.

Q: And the viability, T/C (second compound 0.316 µM, first compound 0.0316 µM)?
A: The viability, T/C was 107%.

Q: And the viability, T/C (second compound 0.316 µM, first compound 0.1 µM)?
A: Its viability, T/C is 119%.

Q: What about the viability, T/C (second compound 1 µM, first compound 0.000316 µM) of the same compound?
A: The viability, T/C was 94.4%.

Q: What about the viability, T/C (second compound 1 µM, first compound 0.001 µM) of the same compound?
A: Its viability, T/C is 103%.

Q: And the viability, T/C (second compound 1 µM, first compound 0.00316 µM)?
A: Its viability, T/C is 102%.

Q: What about the viability, T/C (second compound 1 µM, first compound 0.01 µM) of the same compound?
A: The viability, T/C was 104%.

Q: What about the viability, T/C (second compound 1 µM, first compound 0.0316 µM) of the same compound?
A: Its viability, T/C is 116%.

Q: And the viability, T/C (second compound 1 µM, first compound 0.1 µM)?
A: Its viability, T/C is 109%.

Q: What about the viability, T/C (second compound 3.16 µM, first compound 0.000316 µM) of the same compound?
A: Its viability, T/C is 94.6%.

Q: What about the viability, T/C (second compound 3.16 µM, first compound 0.001 µM) of the same compound?
A: Its viability, T/C is 116%.

Q: And the viability, T/C (second compound 3.16 µM, first compound 0.00316 µM)?
A: The viability, T/C was 113%.

Q: And the viability, T/C (second compound 3.16 µM, first compound 0.01 µM)?
A: The viability, T/C was 103%.

Q: What about the viability, T/C (second compound 3.16 µM, first compound 0.0316 µM) of the same compound?
A: Its viability, T/C is 99.2%.

Q: And the viability, T/C (second compound 3.16 µM, first compound 0.1 µM)?
A: Its viability, T/C is 110%.

Q: And the viability, T/C (second compound 10 µM, first compound 0.000316 µM)?
A: The viability, T/C was 97.7%.

Q: What about the viability, T/C (second compound 10 µM, first compound 0.001 µM) of the same compound?
A: The viability, T/C was 99.8%.

Q: What about the viability, T/C (second compound 10 µM, first compound 0.00316 µM) of the same compound?
A: The viability, T/C was 94.7%.

Q: And the viability, T/C (second compound 10 µM, first compound 0.01 µM)?
A: The viability, T/C was 89.5%.

Q: And the viability, T/C (second compound 10 µM, first compound 0.0316 µM)?
A: Its viability, T/C is 90.3%.

Q: And the viability, T/C (second compound 10 µM, first compound 0.1 µM)?
A: The viability, T/C was 83%.

Q: For `C#Cc1c(F)ccc2cc(O)cc(-c3ncc4c(N5CC6CCC(C5)N6)nc(OCC56CCCN5CC(F)C6)nc4c3F)c12` (centres undefined), which viability, T/C (compound 0.0316 µM) is on record?
A: The viability, T/C was 120% and 98.2% and 102% (2×).

Q: What about the viability, T/C (compound 0.1 µM) of the same compound?
A: Its viability, T/C is 105% and 102% (2×) and 101%.

Q: And the viability, T/C (compound 0.316 µM)?
A: Its viability, T/C is 101% [middle of 4 runs].

Q: What about the viability, T/C (compound 1 µM) of the same compound?
A: The viability, T/C was 101% [middle of 4 runs].

Q: What about the viability, T/C (compound 3.16 µM) of the same compound?
A: Its viability, T/C is 108% [middle of 4 runs].

Q: What about the viability, T/C (compound 10 µM) of the same compound?
A: Its viability, T/C is 107% [middle of 4 runs].

Q: What about the IC50 (curve of compound) of the same compound?
A: The IC50 was greater than 10000 nM.
